The record followed here is US20220289698A1, “INHIBITORS OF HUMAN ATGL” (Karl-Franzens-Universität Graz, priority 2019, published 2022).

Molecules are shown by their SMILES.

Holding throughout (assay type): biochemical
One assay has as its target T1, hHSL (Homo sapiens, UniProt Q05469).
T1 construct: made in house; host or cells: Expi cells (lysate)
T1 sequence (Q05469 1-1076): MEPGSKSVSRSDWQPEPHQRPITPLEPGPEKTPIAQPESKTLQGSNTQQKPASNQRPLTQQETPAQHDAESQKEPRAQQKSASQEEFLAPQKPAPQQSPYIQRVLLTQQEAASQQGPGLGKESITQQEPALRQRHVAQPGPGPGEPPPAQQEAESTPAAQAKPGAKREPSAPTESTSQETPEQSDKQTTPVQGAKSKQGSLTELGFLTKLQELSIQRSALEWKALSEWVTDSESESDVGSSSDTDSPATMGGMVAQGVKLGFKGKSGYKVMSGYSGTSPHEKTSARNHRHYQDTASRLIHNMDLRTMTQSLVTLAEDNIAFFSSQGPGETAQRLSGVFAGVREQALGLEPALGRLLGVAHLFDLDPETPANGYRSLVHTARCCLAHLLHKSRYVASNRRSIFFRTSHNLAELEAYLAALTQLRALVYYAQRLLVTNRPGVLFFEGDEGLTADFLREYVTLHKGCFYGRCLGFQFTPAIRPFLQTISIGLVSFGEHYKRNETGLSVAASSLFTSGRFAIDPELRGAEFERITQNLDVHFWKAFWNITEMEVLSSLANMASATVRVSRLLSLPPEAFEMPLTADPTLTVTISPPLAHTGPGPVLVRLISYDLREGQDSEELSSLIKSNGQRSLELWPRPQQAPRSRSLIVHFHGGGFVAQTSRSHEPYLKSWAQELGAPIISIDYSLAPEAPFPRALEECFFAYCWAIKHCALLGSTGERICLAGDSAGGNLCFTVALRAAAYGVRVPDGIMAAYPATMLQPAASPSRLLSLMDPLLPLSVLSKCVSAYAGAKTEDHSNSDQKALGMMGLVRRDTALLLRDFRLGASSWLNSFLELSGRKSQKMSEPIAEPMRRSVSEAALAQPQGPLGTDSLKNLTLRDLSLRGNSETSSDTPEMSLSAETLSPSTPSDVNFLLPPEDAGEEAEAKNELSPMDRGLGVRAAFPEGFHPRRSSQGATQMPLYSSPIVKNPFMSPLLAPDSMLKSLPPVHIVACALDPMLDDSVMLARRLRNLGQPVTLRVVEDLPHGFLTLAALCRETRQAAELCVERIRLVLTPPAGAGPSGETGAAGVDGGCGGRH
Put plainly: hHSL off-target inhibition. Particulars: read-out: hHSL off-target inhibition [% inhibition at 100 μM]. As for the experimental part:
Expi lysates expressing hHSL were preincubated with 100 μM Inhibitors for 30 min and incubated with 1 mM pNV substrate for 30 min. Samples measured in triplicates.

The test system of another assay is goat ATGL. Put plainly: Goat ATGL inhibition, Expi lysates + CGI-58. How it is done:
Lysates from Expi cells overexpressing ATGL from goat (Capra hircus) were incubated with recombinant purified ATGL co-activator CGI-58 and ATGL inhibitors at 50 μM. Subsequently, substrate containing radiolabeled triolein was added and liberated FA were extracted and quantified by liquid scintillation. Inhibitors were dissolved in DMSO which was used as control. Samples were measured in triplicates.

The next assay has as its target T2, rat ATGL (Rattus norvegicus, UniProt P0C548).
T2 construct: made in house; host or cells: Expi cells (lysate)
T2 sequence (P0C548 1-478): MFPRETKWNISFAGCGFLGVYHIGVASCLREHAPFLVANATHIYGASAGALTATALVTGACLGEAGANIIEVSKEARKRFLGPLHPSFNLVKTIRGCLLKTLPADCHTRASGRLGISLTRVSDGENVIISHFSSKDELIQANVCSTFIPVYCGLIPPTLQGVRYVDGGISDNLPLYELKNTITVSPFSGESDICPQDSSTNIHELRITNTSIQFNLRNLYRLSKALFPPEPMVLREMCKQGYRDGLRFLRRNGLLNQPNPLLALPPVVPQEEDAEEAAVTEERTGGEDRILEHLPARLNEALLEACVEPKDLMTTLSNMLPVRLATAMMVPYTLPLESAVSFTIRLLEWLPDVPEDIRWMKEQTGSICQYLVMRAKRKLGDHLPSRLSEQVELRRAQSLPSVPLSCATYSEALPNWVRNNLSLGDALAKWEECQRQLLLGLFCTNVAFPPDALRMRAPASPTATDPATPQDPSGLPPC
Put plainly: Rat ATGL inhibition, Expi lysates + CGI-58. As for the experimental part:
Lysates from Expi cells overexpressing ATGL from rat (Rattus norvegicus) were incubated with recombinant purified ATGL co-activator CGI-58 and ATGL inhibitors at 50 μM. Subsequently, substrate containing radiolabeled triolein was added and liberated FA were extracted and quantified by liquid scintillation. Inhibitors were dissolved in DMSO which was used as control. Samples were measured in triplicates.

For `CCOc1ccc(-c2cc(OC)cc(C(=O)OC(C)C)n2)cc1` [Example 35], the inhibition at 100 µM at hHSL came to 0%.
On to `CCOc1ccc(-c2nc(C(=O)OCc3cccs3)cs2)cc1` [Example 152, Thiophen-2-ylmethyl 2-(4-ethoxyphenyl)thiazole-4-carboxylate], for which the “goat ATGL inhibition [% inhibition at 50 μM” value in the assay with goat ATGL is 0%. Besides, the inhibition at 50 µM on rat ATGL stood at 10%. On hHSL, the inhibition at 100 µM was found to be 25%.
The matching figures for `CCOc1ccc(-c2cccc(C(=O)OCc3cccs3)n2)cc1` [Example 189, Thiophen-2-ylmethyl 6-(4-ethoxyphenyl)picolinate]: 50%, 10% and 0%.
On the same counts, the results for `CCOc1ccc(-c2cccc(C(=O)OCc3ccco3)n2)cc1` [Example 190, Furan-2-ylmethyl 6-(4-ethoxyphenyl)picolinate] are 25%, 40% and 0%.
The matching figures for `COc1cc(C(=O)OC(C)C)nc(-c2ccc(OC(C)C)cc2)c1` [Example 201, Isopropyl 6-(4-isopropoxyphenyl)-4-methoxypicolinate]: 0%, 0% and 0%.
Turning to `CC#CCOC(=O)c1csc(-c2ccc(OCC)cc2)n1` [Example 209, But-2-yn-1-yl 2-(4-ethoxyphenyl)thiazole-4-carboxylate], the “goat ATGL inhibition [% inhibition at 50 μM” value in the assay with goat ATGL is on record as 25%. Also, the inhibition at 50 µM at rat ATGL was found to be 40%. Further, the inhibition at 100 µM on hHSL is 40%.
Consider `C#C[C@H](C)OC(=O)c1csc(-c2ccc(OCC)cc2)n1` [Example 210, (S)-But-3-yn-2-yl 2-(4-ethoxyphenyl)thiazole-4-carboxylate], for which, in the assay on goat ATGL, the “goat ATGL inhibition [% inhibition at 50 μM” value was found to be 20%. Further, the inhibition at 50 µM at rat ATGL amounted to 15%. Also, the inhibition at 100 µM on hHSL stood at 0%.
In the case of `C#C[C@@H](C)OC(=O)c1csc(-c2ccc(OCC)cc2)n1` [Example 211, (R)-But-3-yn-2-yl 2-(4-ethoxyphenyl)thiazole-4-carboxylate], the “goat ATGL inhibition [% inhibition at 50 μM” value with goat ATGL was determined as 30%. Besides, the inhibition at 50 µM at rat ATGL stood at 50%. Further, the inhibition at 100 µM at hHSL was 40%.
On the same counts, the results for `CCCCOC(=O)c1csc(-c2ccc(OCC)cc2)n1` [Example 212, Butyl 2-(4-ethoxyphenyl)thiazole-4-carboxylate] are 20%, 40% and 0%.
The matching figures for `CCOc1ccc(-c2nc(C(=O)OCc3ccsc3)cs2)cc1` [Example 215, Thiophen-3-ylmethyl 2-(4-ethoxyphenyl)thiazole-4-carboxylate]: 50%, 50% and 30%.
With `CCOc1ccc(-c2nc(C(=O)OCc3ccoc3)cs2)cc1` [Example 216, Furan-3-ylmethyl 2-(4-ethoxyphenyl)thiazole-4-carboxylate], the “goat ATGL inhibition [% inhibition at 50 μM” value in the assay with goat ATGL amounted to 50%. In addition, the inhibition at 50 µM at rat ATGL came out at 50%. Further, the inhibition at 100 µM on hHSL was 30%.
As to `CCOc1ccc(-c2nc(C(=O)OCc3ccc(Cl)s3)cs2)cc1` [Example 223, (5-Chlorothiophen-2-yl)methyl 2-(4-ethoxyphenyl)thiazole-4-carboxylate], the “goat ATGL inhibition [% inhibition at 50 μM” value in the assay on goat ATGL is given as 40%. In addition, the inhibition at 50 µM on rat ATGL was 40%. Also, the inhibition at 100 µM at hHSL worked out at 40%.
As to `CCOc1ccc(-c2nc(C(=O)OCc3ccc(Br)s3)cs2)cc1` [Example 224, (5-Bromothiophen-2-yl)methyl 2-(4-ethoxyphenyl)thiazole-4-carboxylate], the “goat ATGL inhibition [% inhibition at 50 μM” value in the assay on goat ATGL was 40%. Moreover, the inhibition at 50 µM on rat ATGL was found to be 40%. The inhibition at 100 µM on hHSL came out at 95%.
